Earlier results in article PMC7465340, “Preparation and Evaluation of Eudragit L100-PEG Proliponiosomes for Enhanced Oral Delivery of Celecoxib” (Pharmaceutics, 2020).
Values after ≈ are worked out from the molar mass of the structure shown. Where two headings read alike, the source gives them in different places.

## Cc1ccc(-c2cc(C(F)(F)F)nn2-c2ccc(S(N)(=O)=O)cc2)cc1 [CXB, Celecoxib]
pH 1.2
  solubility in aqueous media: 1.4 µg/mL (≈ 3.67 µM)
pH 6.8
  solubility in aqueous media: 1.2 µg/mL (≈ 3.15 µM)
  solubility of free CXB: ≈ 1.23 ± 0.05 μg/mL
